Structures are written as SMILES.

The results in this text go back to patent publication US8658637B2, “Glucocorticoid mimetics, methods of making them, pharmaceutical compositions and uses thereof” (Boehringer Ingelheim International GmbH, priority 2006, dated 2014).

In the experiment the test system is IL-6 production in human foreskin fibroblast cells. The experiment is described as follows: Inhibition of IL-6 Production in Fibroblasts (Cell Assay for Transrepression). The class given is cell-based. Particulars: IL-1 stimulated human foreskin fibroblasts; for EC50: read-out: agonistic activity (EC50) by inhibiting IL-6 production in Fibroblasts; for Emax: read-out: efficacy by inhibiting IL-6 production in Fibroblasts. On the procedure: 2. Inhibition of IL-6 Production in Fibroblasts (Cell Assay for Transrepression)
Human foreskin fibroblast cells produce IL-6 in response to stimulation by proinflammatory cytokine IL-1.
Human foreskin fibroblast cells (ATCC Cat. No. CRL-2429) are plated on 96 well plates at 5,000 cells per well the day before use, in Iscove's Modified Dulbecco's Media (GibcoBRL Life Technologies Cat. No. 12440-053) supplemented with 10% charcoal filtered FBS (Clonetech Cat. No. SH30068) and Gentamycin (GibcoBRL Life Technologies Cat. No. 15710-064). On the next day, media in the wells is replaced with fresh media. Cells are treated with IL-1 (rhIL-1α, R&D Systems Cat. No. 200-LA) to a final concentration of 1 ng/mL, and with test compounds to final concentrations of 10^−5 M to 10^−8 M, in a total volume of 200 μL per well. Samples are done in duplicates. […] Positive control wells receive IL-1 only and represent maximum (or 100%) amount of IL-6 production. Plates are incubated at 37° C. overnight (15 to 18 hours), and supernatants are harvested at the end of incubation. IL-6 levels in the supernatants are determined by the ELISA kits for IL-6 (MedSystems Diagnostics GmbH, Vienna, Austria, Cat. No. BMS213TEN) according to manufacture's instructions. The extent of inhibition of IL-6 by test compounds is expressed in percentage relative to positive controls. IC50 values of test compounds are derived by non-linear curve fitting.

In the case of `CCOC(=O)Cn1cc(C(O)(c2ccc3c(cnn3-c3ccc(F)cc3)c2)C(F)(F)F)c2ccccc21` (stereo not drawn) [(3-{2,2,2-Trifluoro-1-[1-(4-fluorophenyl)-1H-indazol-5-yl]-1-hydroxyethyl}indol-1-yl)acetic acid ethyl ester], the EC50 (as a rule, the concentration giving half of the maximal effect) is ≤ 1 µM and the Emax was > 50%.
For the compound `Cc1cc(C(O)(c2ccc3c(cnn3-c3ccc(F)cc3)c2)C(F)(F)F)cn(CC(N)=O)c1=O` (stereo not drawn) [(3-Methyl-2-oxo-5-{2,2,2-trifluoro-1-[1-(4-fluorophenyl)-1H-indazol-5-yl]-1-hydroxyethyl}-2H-pyridin-1-yl)acetamide], the EC50 was ≤ 1 µM and the Emax is > 50%.
Consider `OC(c1ccc2c(cnn2-c2ccc(F)cc2)c1)(c1c[nH]c2c(Cl)nccc12)C(F)(F)F` (stereo not drawn) [1-(7-Chloro-1H-pyrrolo[2,3-c]pyridin-3-yl)-2,2,2-trifluoro-1-[1-(4-fluorophenyl)-1H-indazol-5-yl]ethanol], for which the EC50 was ≤ 1 µM and the Emax is > 50%.
On to `C=CCn1cc(C(O)(c2ccc3c(cnn3-c3ccc(F)cc3)c2)C(F)(F)F)cc1C(=O)OCC` (stereo not drawn) [1-Allyl-4-{2,2,2-trifluoro-1-[1-(4-fluorophenyl)-1H-indazol-5-yl]-1-hydroxyethyl}-1H-pyrrole-2-carboxylic acid ethyl ester], for which the EC50 was ≤ 1 µM and the Emax is > 50%.
For `[O-][n+]1cccc2c(C(O)(c3ccc4c(cnn4-c4ccc(F)cc4)c3)C(F)(F)F)c[nH]c21` (stereo not drawn) [2,2,2-Trifluoro-1-[1-(4-fluorophenyl)-1H-indazol-5-yl]-1-(7-oxy-1H-pyrrolo[2,3-b]pyridin-3-yl)ethanol], the EC50 is ≤ 1 µM and the Emax is > 50%.
As to `NC(=O)Cn1cc(C(O)(c2ccc3c(cnn3-c3ccc(F)cc3)c2)C(F)(F)F)c2cccnc21` (stereo not drawn) [2-(3-{2,2,2-Trifluoro-1-[1-(4-fluorophenyl)-1H-indazol-5-yl]-1-hydroxyethyl}pyrrolo[2,3-b]pyridin-1-yl)acetamide], the EC50 is ≤ 1 µM and the Emax is > 50%.
Taken in the same sequence, the figures for `OC(c1ccc2c(cnn2-c2ccc(F)cc2)c1)(c1cn(CCN2CCOCC2)c2ccccc12)C(F)(F)F` (stereo not drawn) [2,2,2-Trifluoro-1-[1-(4-fluorophenyl)-1H-indazol-5-yl]-1-[1-(2-morpholin-4-ylethyl)-1H-indol-3-yl]ethanol] were ≤ 1 µM and > 50%.
Consider `C=CCn1cc(C(O)(c2ccc3c(cnn3-c3ccc(F)cc3)c2)C(F)(F)F)c2ccn(C)c(=O)c21` (stereo not drawn) [1-Allyl-6-methyl-3-{2,2,2-trifluoro-1-[1-(4-fluorophenyl)-1H-indazol-5-yl]-1-hydroxyethyl}-1,6-dihydropyrrolo[2,3-c]pyridin-7-one], for which the EC50 is ≤ 1 µM and the Emax was > 50%.
Take `Cn1cc(C(O)(c2ccc3c(c2)nnn3-c2ccc(F)cc2)C(F)(F)F)c2ccccc21` (stereo not drawn) [2,2,2-Trifluoro-1-[1-(4-fluorophenyl)-1H-benzotriazol-5-yl]-1-(1-methyl-1H-indol-3-yl)ethanol]: the EC50 was ≤ 1 µM and the Emax was > 50%.
Take `Cc1cc(C(O)(c2ccc3c(cnn3-c3ccc(F)cc3)c2)C(F)(F)F)c[nH]c1=O` (stereo not drawn) [3-Methyl-5-{2,2,2-trifluoro-1-[1-(4-fluorophenyl)-1H-indazol-5-yl]-1-hydroxyethyl}-1H-pyridin-2-one]: the EC50 was ≤ 1 µM and the Emax is > 50%.
Turning to `NC(=O)Cn1cc(C(O)(c2ccc3c(cnn3-c3ccc(F)cc3)c2)C(F)(F)F)c2ccnc(Cl)c21` (stereo not drawn) [2-(7-Chloro-3-{2,2,2-trifluoro-1-[1-(4-fluorophenyl)-1H-indazol-5-yl]-1-hydroxyethyl}pyrrolo[2,3-c]pyridin-1-yl)acetamide], the EC50 is ≤ 1 µM and the Emax was > 50%.
For `OCCn1cc(C(O)(c2ccc3c(cnn3-c3ccc(F)cc3)c2)C(F)(F)F)c2ncnc(Cl)c21` (stereo not drawn) [1-[4-Chloro-5-(2-hydroxyethyl)-5H-pyrrolo[3,2-d]pyrimidin-7-yl]-2,2,2-trifluoro-1-[1-(4-fluorophenyl)-1H-indazol-5-yl]ethanol], the EC50 was ≤ 1 µM and the Emax was > 50%.
Regarding `COc1nccc2c(C(O)(c3ccc4c(cnn4-c4ccc(F)cc4)c3)C(F)(F)F)c[nH]c12` (stereo not drawn) [2,2,2-Trifluoro-1-[1-(4-fluorophenyl)-1H-indazol-5-yl]-1-(7-methoxy-1H-pyrrolo[2,3-c]pyridin-3-yl)ethanol], the EC50 was ≤ 1 µM and the Emax is > 50%.
With `C=CCn1cc(C(O)(c2ccc3c(cnn3-c3ccc(F)cc3)c2)C(F)(F)F)c2ccc(Br)cc21` (stereo not drawn) [1-(1-Allyl-6-bromo-1H-indol-3-yl)-2,2,2-trifluoro-1-[1-(4-fluorophenyl)-1H-indazol-5-yl]ethanol], the EC50 was ≤ 1 µM and the Emax was > 50%.
In the case of `C[C@H](O)Cn1cc(C(O)(c2ccc3c(cnn3-c3ccc(F)cc3)c2)C(F)(F)F)c2ccccc21` (stereo partly drawn) [(S)-1-(3-{2,2,2-Trifluoro-1-[1-(4-fluorophenyl)-1H-indazol-5-yl]-1-hydroxyethyl}indol-1-yl)propan-2-ol], the EC50 is ≤ 1 µM and the Emax is > 50%.
Consider `Cn1cc(C(O)(c2ccn3c(-c4ccc(F)cc4)ncc3c2)C(F)(F)F)c2ccccc21` (stereo not drawn) [2,2,2-Trifluoro-1-[3-(4-fluorophenyl)imidazo[1,5-a]pyridin-7-yl]-1-(1-methyl-1H-indol-3-yl)ethanol], for which the EC50 is ≤ 1 µM and the Emax was > 50%.
The corresponding values for `CC(C)NC(=O)n1ncc2cc(C(O)(c3cn(C)c4ccccc34)C(F)(F)F)ccc21` (stereo not drawn) [5-[2,2,2-Trifluoro-1-hydroxy-1-(1-methyl-1H-indol-3-yl)ethyl]indazole-1-carboxylic acid isopropylamide] are ≤ 1 µM and > 50%.
As to `Cn1cc(C(O)(c2ccc3c(cnn3-c3ccsc3)c2)C(F)(F)F)c2ccccc21` (stereo not drawn) [2,2,2-Trifluoro-1-(1-methyl-1H-indol-3-yl)-1-(1-thiophen-3-yl-1H-indazol-5-yl)ethanol], the EC50 was ≤ 1 µM and the Emax is > 50%.
Consider `CC1(C)OCC(Cn2cc(C(O)(c3ccn4c(-c5ccc(F)cc5)ncc4c3)C(F)(F)F)c3ccccc32)O1` (stereo not drawn) [1-[1-(2,2-Dimethyl-1,3-dioxolan-4-ylmethyl)-1H-indol-3-yl]-2,2,2-trifluoro-1-[3-(4-fluorophenyl)imidazo[1,5-a]pyridin-7-yl]ethanol], for which the EC50 is ≤ 1 µM and the Emax was > 50%.
The corresponding values for `OC(c1ccc2c(cnn2-c2ccc(F)cc2)c1)(c1cn(CC2CCCO2)c2ccccc12)C(F)(F)F` (stereo not drawn) [2,2,2-Trifluoro-1-[1-(4-fluorophenyl)-1H-indazol-5-yl]-1-[1-(tetrahydro-furan-2-ylmethyl)-1H-indol-3-yl]ethanol] are ≤ 1 µM and > 50%.
As to `Cn1cc(C(O)(c2ccc3c(cnn3-c3ccc(F)nc3)c2)C(F)(F)F)c2ccccc21` (stereo not drawn) [2,2,2-Trifluoro-1-[1-(6-fluoropyridin-3-yl)-1H-indazol-5-yl]-1-(1-methyl-1H-indol-3-yl)ethanol], the EC50 was ≤ 1 µM and the Emax is > 50%.
Consider `CNC(=O)CCn1cc(C(O)(c2ccc3c(cnn3-c3ccc(F)cc3)c2)C(F)(F)F)c2ccccc21` (stereo not drawn) [N-Methyl-3-(3-{2,2,2-trifluoro-1-[1-(4-fluorophenyl)-1H-indazol-5-yl]-1-hydroxyethyl}indol-1-yl)propionamide], for which the EC50 is ≤ 1 µM and the Emax was > 50%.
`C=CCn1cc(C(O)(c2ccc3c(cnn3-c3ccc(F)cc3)c2)C(F)(F)F)c(C#N)n1` (stereo not drawn) [1-Allyl-4-{2,2,2-trifluoro-1-[1-(4-fluorophenyl)-1H-indazol-5-yl]-1-hydroxyethyl}-1H-pyrazole-3-carbonitrile]: the EC50 was ≤ 1 µM and the Emax is > 50%.
The corresponding values for `O=C(O)Cn1cc(C(O)(c2ccc3c(cnn3-c3ccc(F)cc3)c2)C(F)(F)F)c2ccccc21` (stereo not drawn) [(3-{2,2,2-Trifluoro-1-[1-(4-fluorophenyl)-1H-indazol-5-yl]-1-hydroxyethyl}indol-1-yl)acetic acid] are ≤ 1 µM and > 50%.
Turning to `NC(=O)Cn1cc(C(O)(c2ccc3c(cnn3-c3cccnc3)c2)C(F)(F)F)c2ccccc21` (stereo not drawn) [2-{3-[2,2,2-Trifluoro-1-hydroxy-1-(1-pyridin-3-yl-1H-indazol-5-yl)ethyl]indol-1-yl}acetamide], the EC50 was ≤ 1 µM and the Emax was > 50%.
The corresponding values for `C=CCCn1cc(C(O)(c2ccc3c(cnn3-c3ccc(F)cc3)c2)C(F)(F)F)c2ccc(Br)cc21` (stereo not drawn) [1-(6-Bromo-1-but-3-enyl-1H-indol-3-yl)-2,2,2-trifluoro-1-[1-(4-fluorophenyl)-1H-indazol-5-yl]ethanol] are ≤ 1 µM and > 50%.
Regarding `NC(=O)CCn1cc(C(O)(c2ccc3c(cnn3-c3ccc(F)cc3)c2)C(F)(F)F)c2ccccc21` (stereo not drawn) [3-(3-{2,2,2-Trifluoro-1-[1-(4-fluorophenyl)-1H-indazol-5-yl]-1-hydroxyethyl}indol-1-yl)propionamide], the EC50 is ≤ 1 µM and the Emax was > 50%.
